Data as given in the supplement of paper PMC11061612.

Legend:
[1] = compound: C=CCn1c(=O)c2cnc(Nc3ccc(N4CCN(C)CC4)cc3)nc2n1-c1cccc(C(C)(C)O)n1 [AZD1775]; settings: max 3 µM
Method in brief: (§1)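 Viability was measured with CellTiter-Glo 2.0 luminescence after 72 hours of dosing at a final DMSO of typically 0.2%, and scaled between blank-well and DMSO-well means. Beforehand, cancer cell lines sat 24 hours at 37°C and 5% CO2 in 1536-well plates in 7.5 μl DMEM/F12 or RPMI with 10% FBS. A non-linear mixed effects model fitted two-parameter logistic curves to the dose responses. The single-agent IC50 comes from these fits.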

[2] = compound: CC(=O)Nc1cccc(-n2c(=O)n(C3CC3)c(=O)c3c(Nc4ccc(I)cc4F)n(C)c(=O)c(C)c32)c1 [Trametinib]; settings: max 1 µM
Method in brief: as §1

[3] = compound: Cc1cc2ncnn2cc1Nc1ncc2c(n1)n(C1CCOCC1)c(=O)n2C [AZD7648]; settings: max 10 µM
Method in brief: as §1

[4] = compound: Nc1ccn([C@@H]2O[C@H](CO)[C@@H](O)C2(F)F)c(=O)n1 [Gemcitabine]; settings: max 0.3 µM
Method in brief: as §1

[5] = compound: O=C(Nc1ccc2[nH]nc(-c3ccncc3)c2c1)[C@@H]1CCN(CC(=O)N2CCN(c3ccc(-c4ncccn4)cc3)CC2)C1; settings: max 5 µM
Method in brief: as §1

[6] = compound: COc1cc([C@@H]2c3cc4c(cc3[C@@H](O[C@@H]3O[C@@H]5CO[C@@H](C)O[C@H]5[C@H](O)[C@H]3O)[C@H]3COC(=O)[C@H]23)OCO4)cc(OC)c1O [Etoposide]; settings: max 10 µM
Method in brief: as §1

[7] = compound: C1CN(CCC1(C(=O)N[C@@H](CCO)C2=CC=C(C=C2)Cl)N)C3=NC=NC4=C3C=CN4 [AZD5363]; settings: max 10 µM
Method in brief: as §1

[8] = compound: Cc1nc(-c2cn3c(n2)-c2ccc(-c4cnn(C(C)(C)C(N)=O)c4)cc2OCC3)n(C(C)C)n1 [Taselisib]; settings: max 10 µM
Method in brief: as §1

[9] = compound: CC(=O)c1c(C)c2cnc(Nc3ccc(N4CCNCC4)cn3)nc2n(C2CCCC2)c1=O [Palbociclib]; settings: max 10 µM
Method in brief: as §1

[10] = compound: CCc1c2c(nc3ccc(O)cc13)-c1cc3c(c(=O)n1C2)COC(=O)[C@]3(O)CC [SN-38]; settings: max 0.3 µM
Method in brief: as §1

[11] = compound: CC1=CN2[C@@H](C1)C=NC3=CC(=C(C=C3C2=O)OC)OCCCCCOC4=C(C=C5C(=C4)N=C[C@@H]6CC(=CN6C5=O)C)OC [SG3199]; settings: max 0.001 µM
Method in brief: as §1

[12] = compound: COc1cc2ncnc(Nc3ccc(F)c(Cl)c3)c2cc1OCCCN1CCOCC1 [Gefitinib]; settings: max 10 µM
Method in brief: as §1

[13] = compound: C[C@@H](Nc1cc(F)cc(F)c1)c1cc(C(=O)N(C)C)cc2c(=O)cc(N3CCOCC3)oc12 [AZD8186]; settings: max 10 µM
Method in brief: as §1

[14] = compound: CC1=C(C(=CC=C1)Cl)NC(=O)C2=CN=C(S2)NC3=CC(=NC(=N3)C)N4CCN(CC4)CCO [Dasatinib]; settings: max 2 µM
Method in brief: as §1

[15] = compound: COc1cccc2c1C(=O)c1c(O)c3c(c(O)c1C2=O)C[C@@](O)(C(=O)CO)C[C@@H]3O[C@H]1C[C@H](N)[C@H](O)[C@H](C)O1 [Doxorubicin]; settings: max 1 µM
Method in brief: as §1

[16] = compound: N#Cc1cnc(Nc2cc(NC[C@H]3CNCCO3)c(C(F)(F)F)cn2)cn1 [SRA737]; settings: max 10 µM
Method in brief: as §1

[17] = compound: Cc1c2c(nn1C)CSCc1cc(n(C)n1)CSc1cc(c3ccccc3c1)OCCCc1c(C(=O)O)n(C)c3c-2c(Cl)ccc13 [AZD5991]; settings: max 1 µM
Method in brief: as §1

[18] = compound: C[C@@H](Oc1cc(-c2cnn(C3CCNCC3)c2)cnc1N)c1c(Cl)ccc(F)c1Cl [Crizotinib]; settings: max 10 µM
Method in brief: as §1

[19] = compound: NC1(c2ccc(-c3nc4ccn5c(=O)[nH]nc5c4cc3-c3ccccc3)cc2)CCC1 [MK-2206]; settings: max 10 µM
Method in brief: as §1

[20] = compound: CCN(CCO)CCCOc1ccc2c(Nc3cc(CC(=O)Nc4cccc(F)c4)[nH]n3)ncnc2c1 [AZD2811]; settings: max 1 µM
Method in brief: as §1

[21] = compound: COc1nnc2ccc(N3CCC(c4ccc(OCCN5CCN(C)C(=O)[C@H]5C)cc4)CC3)nn12 [AZD5153]; settings: max 1 µM
Method in brief: as §1

[22] = compound: C[C@@H]1COCCN1C2=NC(=NC(=C2)C3(CC3)[S@](=N)(=O)C)C4=C5C=CNC5=NC=C4 [AZD6738]; settings: max 10 µM
Method in brief: as §1

[23] = compound: O=C(c1cc(Cc2n[nH]c(=O)c3ccccc23)ccc1F)N1CCN(C(=O)C2CC2)CC1 [Olaparib]; settings: max 10 µM
Method in brief: as §1

[24] = compound: CC(C)n1c(=O)n(C)c2cnc3cc(F)c(-c4ccc(OCCCN5CCCCC5)nc4)cc3c21 [AZD1390]; settings: max 0.3 µM
Method in brief: as §1

[25] = compound: CN(CC[C@H](CSC1=CC=CC=C1)NC2=C(C=C(C=C2)S(=O)(=O)NC(=O)C3=CC=C(C=C3)N4CCC(CC4)[C@H](C5=CC=CC=C5C6=CC=C(C=C6)Cl)O)S(=O)(=O)C(F)(F)F)CCO [AZD4320]; settings: max 1 µM
Method in brief: as §1

[26] = compound: CS(=O)(=O)CCNCc1ccc(-c2ccc3ncnc(Nc4ccc(OCc5cccc(F)c5)c(Cl)c4)c3c2)o1 [Lapatinib]; settings: max 10 µM
Method in brief: as §1

[27] = compound: C[C@@H](c1ccc2nccn2c1)n1nnc2ncc(-c3cnn(C)c3)nc21 [Savolitinib]; settings: max 1 µM
Method in brief: as §1

[28] = compound: CN(C)CCCOc1ccc(-c2ccc3ncc4c(c3c2)n(C2CCOCC2)c(=O)n4C)cn1 [AZD0156]; settings: max 3 µM
Method in brief: as §1

[29] = compound: O=c1[nH]cc(F)c(=O)[nH]1 [5-Fluorouracil]; settings: max 20 µM
Method in brief: as §1

[30] = compound: C1CC(C1)(C(=O)[O-])C(=O)[O-].N.N.[Pt+2] [Carboplatin]; settings: max 10 µM
Method in brief: as §1

[31] = compound: COc1cc(Nc2ncc3c(n2)-c2ccc(Cl)cc2C(c2c(F)cccc2OC)=NC3)ccc1C(=O)O [Alisertib]; settings: max 10 µM
Method in brief: as §1

[32] = compound: CC(=O)O[C@H]1C(=O)[C@@]2(C)[C@H]([C@H](OC(=O)c3ccccc3)[C@]3(O)C[C@H](OC(=O)[C@H](O)[C@@H](NC(=O)c4ccccc4)c4ccccc4)C(C)=C1C3(C)C)[C@]1(OC(C)=O)CO[C@@H]1C[C@@H]2O [Paclitaxel]; settings: max 3 µM
Method in brief: as §1

[33] = compound: CC1(C)CCC(CN2CCN(c3ccc(C(=O)NS(=O)(=O)c4ccc(NCC5CCOCC5)c([N+](=O)[O-])c4)c(Oc4cnc5[nH]ccc5c4)c3)CC2)=C(c2ccc(Cl)cc2)C1 [Venetoclax]; settings: max 1 µM
Method in brief: as §1

[34] = compound: Cn1cnc2c(F)c(Nc3ccc(Br)cc3Cl)c(C(=O)NOCCO)cc21 [Selumetinib]; settings: max 10 µM
Method in brief: as §1

[35] = compound: COc1cccc(OCCCN)c1-c1cc(Nc2cnc(C#N)cn2)n[nH]1 [Prexasertib]; settings: max 1 µM
Method in brief: as §1

Cell Line | IC50, cell viability 72 h [1] [nM] | IC50, cell viability 72 h [2] [nM] | IC50, cell viability 72 h [3] [nM] | IC50, cell viability 72 h [4] [nM] | IC50, cell viability 72 h [5] [nM] | IC50, cell viability 72 h [6] [nM] | IC50, cell viability 72 h [7] [nM] | IC50, cell viability 72 h [8] [nM] | IC50, cell viability 72 h [9] [nM] | IC50, cell viability 72 h [10] [nM] | IC50, cell viability 72 h [11] [nM] | IC50, cell viability 72 h [12] [nM] | IC50, cell viability 72 h [13] [nM] | IC50, cell viability 72 h [14] [nM] | IC50, cell viability 72 h [15] [nM] | IC50, cell viability 72 h [16] [nM] | IC50, cell viability 72 h [17] [nM] | IC50, cell viability 72 h [18] [nM] | IC50, cell viability 72 h [19] [nM] | IC50, cell viability 72 h [20] [nM] | IC50, cell viability 72 h [21] [nM] | IC50, cell viability 72 h [22] [nM] | IC50, cell viability 72 h [23] [nM] | IC50, cell viability 72 h [24] [nM] | IC50, cell viability 72 h [25] [nM] | IC50, cell viability 72 h [26] [nM] | IC50, cell viability 72 h [27] [nM] | IC50, cell viability 72 h [28] [nM] | IC50, cell viability 72 h [29] [nM] | IC50, cell viability 72 h [30] [nM] | IC50, cell viability 72 h [31] [nM] | IC50, cell viability 72 h [32] [nM] | IC50, cell viability 72 h [33] [nM] | IC50, cell viability 72 h [34] [nM] | IC50, cell viability 72 h [35] [nM]
BxPC-3 (Pancreatic Carcinoma) | 1710 | 487 | > 10000 | > 300 | 4090 | > 10000 | > 10000 | > 10000 | > 10000 | > 300 | > 1 | > 10000 | > 10000 | 1850 | > 1000 | > 10000 | > 1000 | > 10000 | > 10000 | > 1000 | > 1000 | > 10000 | > 10000 | > 300 | > 1000 | > 10000 | > 1000 | > 3000 | > 20000 | > 10000 | > 10000 | 602 | > 1000 | > 10000 | 68.4
C-33-A (Cervical Carcinoma) | 206 | 938 | > 10000 | 25.6 | > 5000 | 909 | 2640 | > 10000 | > 10000 | 20.1 | > 1 | 8590 | > 10000 | 781 | 217 | > 10000 | > 1000 | > 10000 | > 10000 | > 1000 | > 1000 | 1420 | > 10000 | > 300 | > 1000 | > 10000 | > 1000 | > 3000 | > 20000 | > 10000 | > 10000 | 19 | > 1000 | > 10000 | 52.8
COR-L88 (Small Cell Lung Carcinoma) | 1760 | > 1000 | > 10000 | > 300 | > 5000 | > 10000 | > 10000 | > 10000 | > 10000 | > 300 | > 1 | > 10000 | > 10000 | > 2000 | > 1000 | > 10000 | > 1000 | > 10000 | > 10000 | > 1000 | > 1000 | > 10000 | > 10000 | > 300 | 110 | > 10000 | > 1000 | > 3000 | > 20000 | > 10000 | > 10000 | > 3000 | > 1000 | > 10000 | 45.9
CPC-N (Small Cell Lung Carcinoma) | 297 | > 1000 | > 10000 | 144 | > 5000 | 5130 | > 10000 | 8220 | > 10000 | > 300 | > 1 | > 10000 | > 10000 | > 2000 | 887 | 1760 | > 1000 | 6990 | > 10000 | 59.8 | 774 | 2130 | > 10000 | > 300 | 178 | > 10000 | > 1000 | > 3000 | > 20000 | > 10000 | 670 | 21.1 | 721 | > 10000 | 4.03
ES6 (Ewing's Sarcoma) | > 3000 | > 1000 | > 10000 | 268 | > 5000 | > 10000 | > 10000 | 3630 | > 10000 | > 300 | > 1 | > 10000 | > 10000 | > 2000 | > 1000 | > 10000 | > 1000 | > 10000 | > 10000 | > 1000 | > 1000 | > 10000 | > 10000 | > 300 | > 1000 | > 10000 | > 1000 | > 3000 | > 20000 | > 10000 | > 10000 | > 3000 | > 1000 | > 10000 | 481
